Assay results: patent US8952024B2, “Herbicidal pyrimidone derivatives” (E I du Pont de Nemours and Company, priority 2009, dated 2015)

Assays:
Assay type in all cases: in vivo
rice (Oryza sativa) = test: Test B flooded paddy test; conditions: for Plant response rating, Flood, Rice: 250 g ai/ha, flooded paddy test, visual rating on 0 to 100 scale (0 no effect, 100 complete control) after 13 to 15 days; for Plant response rating, Rice: Flood (flooded paddy test), 13 to 15 days
Summary of the method: (§1)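 Plants were grown to the 2-leaf stage, then pots were flooded to 3 cm above the soil and compounds were applied directly into the paddy water. That depth was held throughout. After 13 to 15 days in a greenhouse, injury was visually rated against controls on a 0–100 scale.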

[1] = tested on: umbrella sedge (Cyperus difformis); test: Test B flooded paddy test; conditions: for Plant response rating, Flood, Sedge, Umbrella: 250 g ai/ha, flooded paddy test, visual rating on 0 to 100 scale (0 no effect, 100 complete control) after 13 to 15 days; for Plant response rating, Sedge, Umbrella: Flood (flooded paddy test), 13 to 15 days
Summary of the method: as §1

[2] = tested on: barnyardgrass (Echinochloa crus-galli); test: Test B flooded paddy test; conditions: for Plant response rating, Flood, Barnyardgrass: 250 g ai/ha, flooded paddy test, visual rating on 0 to 100 scale (0 no effect, 100 complete control) after 13 to 15 days; for Plant response rating, Barnyardgrass: Flood (flooded paddy test), 13 to 15 days
Summary of the method: as §1

[3] = tested on: ducksalad (Heteranthera limosa); test: Test B flooded paddy test; conditions: for Plant response rating, Flood, Ducksalad: 250 g ai/ha, flooded paddy test, visual rating on 0 to 100 scale (0 no effect, 100 complete control) after 13 to 15 days; for Plant response rating, Ducksalad: Flood (flooded paddy test), 13 to 15 days
Summary of the method: as §1

[4] = tested on: giant foxtail (Setaria faberii); test: Test A pre-/postemergence plant response
Excerpt: (§2) Seeds of barnyardgrass (Echinochloa crus-galli), large crabgrass (Digitaria sanguinalis), giant foxtail (Setaria faberii), morningglory (Ipomoea spp.), pigweed (Amaranthus retroflexus), velvetleaf (Abutilon theophrasti), wheat (Triticum aestivum) and corn (Zea mays) were planted into a blend of loam soil and sand and treated preemergence with a directed soil spray using test chemicals formulated in a non-phytotoxic solvent mixture which included a surfactant. At the same time these species were also treated with postemergence applications of test compounds formulated in the same manner.
(§3) Plants ranged in height from two to ten cm and were in the one- to two-leaf stage for the postemergence treatment. Treated plants and untreated controls were maintained in a greenhouse for approximately ten days, after which time all treated plants were compared to untreated controls and visually evaluated for injury. Plant response ratings, summarized in Table A, are based on a 0 to 100 scale where 0 is no effect and 100 is complete control. A dash (-) response means no test result.

corn (Zea mays) = test: Test A pre-/postemergence plant response
Excerpt: as §2, §3

[5] = tested on: wheat (Triticum aestivum); test: Test A pre-/postemergence plant response
Excerpt: as §2, §3

[6] = tested on: large crabgrass (Digitaria sanguinalis); test: Test A pre-/postemergence plant response
Excerpt: as §2, §3

[7] = tested on: pigweed (Amaranthus retroflexus); test: Test A pre-/postemergence plant response
Excerpt: as §2, §3

[8] = tested on: velvetleaf (Abutilon theophrasti); test: Test A pre-/postemergence plant response
Excerpt: as §2, §3

[9] = tested on: morningglory (Ipomoea spp.); test: Test A pre-/postemergence plant response
Excerpt: as §2, §3

[10] = tested on: barnyardgrass (Echinochloa crus-galli); test: Test A pre-/postemergence plant response
Excerpt: as §2, §3

[11] = 62 g ai/ha, scale of 0 to 100 where 0 is no effect and 100 is complete control
[12] = 125 g ai/ha, scale 0 to 100, 0 is no effect, 100 is complete control
[13] = Flood, 31 g ai/ha, scale 0 to 100 (0 no effect, 100 complete control)
[14] = Postemergence, 125 g ai/ha, 0 to 100 scale where 0 is no effect and 100 is complete control
[15] = Postemergence, 500 g ai/ha, visual injury, 0 to 100 scale (0 no effect, 100 complete control), approx. ten days
[16] = Preemergence, 125 g ai/ha, 0 to 100 scale, 0 = no effect, 100 = complete control
[17] = Preemergence, 500 g ai/ha, 0 to 100 scale, 0 = no effect, 100 = complete control
[18] = Postemergence, 500 g ai/ha, 0 to 100 scale, 0 = no effect, 100 = complete control, approx. ten days
[19] = Preemergence, 500 g ai/ha, visual injury, 0 to 100 scale (0 no effect, 100 complete control), approx. ten days

Cc1cccc(-c2ncc(C(=O)C3=C(O)CCCC3=O)c(=O)n2C2CCCCC2)c1 [Compound 185]
80: Foxtail, Giant plant response rating [4, 15]
50: Plant response rating, Foxtail, Giant [4, 14] | Plant response rating, Foxtail, Giant [4, 17] | Corn plant response rating (corn (Zea mays); [15]) | Plant response rating, Crabgrass, Large [6, 14] | Plant response rating, Velvetleaf [8, 17] | Plant response rating, Barnyardgrass [10, 17]
70: Plant response rating, Ducksalad [3, 11] | Crabgrass, Large plant response rating [6, 15] | Plant response rating, Pigweed [7, 17] | Plant response rating, Barnyardgrass [10, 14]
75: Plant response rating, Sedge, Umbrella [1, 11] | Plant response rating, Flood, Ducksalad [3] | Plant response rating, Ducksalad [3, 12] | Ducksalad plant response rating [3, 13]
90: Plant response rating, Pigweed [7, 14] | Plant response rating, Velvetleaf [8, 14] | Barnyardgrass plant response rating [10, 15]
30: Plant response rating, Crabgrass, Large [6, 17] | Plant response rating, Morningglory [9, 17]
65: Plant response rating, Sedge, Umbrella [1, 12] | Sedge, Umbrella plant response rating [1, 13]
0: Plant response rating, Flood, Rice (rice (Oryza sativa)) | Plant response rating, Rice (rice (Oryza sativa); [11]) | Plant response rating, Rice (rice (Oryza sativa); [12]) | Rice plant response rating (rice (Oryza sativa); [13]) | Plant response rating, Flood, Barnyardgrass [2] | Plant response rating, Barnyardgrass [2, 11] | Plant response rating, Barnyardgrass [2, 12] | Barnyardgrass plant response rating [2, 13] | Plant response rating, Foxtail, Giant [4, 16] | Plant response rating, Corn (corn (Zea mays); [14]) | Plant response rating, Corn (corn (Zea mays); [16]) | Plant response rating, Corn (corn (Zea mays); [17]) | Plant response rating, Wheat [5, 14] | Wheat plant response rating [5, 15] | Plant response rating, Wheat [5, 16] | Plant response rating, Wheat [5, 17] | Plant response rating, Crabgrass, Large [6, 16] | Plant response rating, Pigweed [7, 16] | Plant response rating, Velvetleaf [8, 16] | Plant response rating, Barnyardgrass [10, 16]
100: Pigweed plant response rating [7, 15] | Velvetleaf plant response rating [8, 15] | Plant response rating, Morningglory [9, 14] | Morningglory plant response rating [9, 15]
60: Plant response rating, Flood, Sedge, Umbrella [1]

CCCCn1c(-c2cccc(C)c2)ncc(C(=O)C2=C(O)CCCC2=O)c1=O [Compound 116]
70: Plant response rating, Crabgrass, Large [6, 19] | Plant response rating, Velvetleaf [8, 14] | Plant response rating, Barnyardgrass [10, 19]
85: Plant response rating, Flood, Ducksalad [3]
80: Plant response rating, Ducksalad [3, 11] | Plant response rating, Crabgrass, Large [6, 18] | Plant response rating, Barnyardgrass [10, 14]
30: Plant response rating, Crabgrass, Large [6, 16] | Plant response rating, Velvetleaf [8, 16]
65: Plant response rating, Barnyardgrass [2, 11]
40: Plant response rating, Morningglory [9, 19]
10: Plant response rating, Foxtail, Giant [4, 16] | Plant response rating, Corn (corn (Zea mays); [18]) | Plant response rating, Barnyardgrass [10, 16]
0: Plant response rating, Flood, Rice (rice (Oryza sativa)) | Plant response rating, Rice (rice (Oryza sativa); [11]) | Plant response rating, Corn (corn (Zea mays); [14]) | Plant response rating, Corn (corn (Zea mays); [16]) | Plant response rating, Corn (corn (Zea mays); [19]) | Plant response rating, Wheat [5, 14] | Plant response rating, Wheat [5, 18] | Plant response rating, Wheat [5, 16] | Plant response rating, Wheat [5, 19] | Plant response rating, Morningglory [9, 16]
90: Plant response rating, Flood, Sedge, Umbrella [1] | Plant response rating, Foxtail, Giant [4, 18]
60: Plant response rating, Foxtail, Giant [4, 14] | Plant response rating, Foxtail, Giant [4, 19] | Plant response rating, Crabgrass, Large [6, 14] | Plant response rating, Pigweed [7, 16] | Plant response rating, Velvetleaf [8, 19]
75: Plant response rating, Sedge, Umbrella [1, 11] | Plant response rating, Flood, Barnyardgrass [2]
100: Plant response rating, Pigweed [7, 14] | Plant response rating, Pigweed [7, 18] | Plant response rating, Pigweed [7, 19] | Plant response rating, Velvetleaf [8, 18] | Plant response rating, Morningglory [9, 14] | Plant response rating, Morningglory [9, 18] | Plant response rating, Barnyardgrass [10, 18]
